# Legend:
# Assay type in all cases: cell-based
# TNBC cell lines = experiment: Cytotoxicity screening (MTT), TNBC cell lines overall; settings: classification of Table 1 cytotoxicity data
# Source text: To this end, several commercial databases were searched, and 17 similar molecules from the VitasM database were retrieved with considerable structural diversity in terms of the substitution on the aryl ring A attached to the thienopyrimidine scaffold and aryl ring B attached to hydrazino moiety. Further, the biological evaluation of the 17 molecules sheds light on the structural features deemed important for the selective cytotoxicity shown by this class of molecules. With this understanding, the 17 molecules were subjected to a screening protocol comprising of two TNBC, two non-TNBC, and one normal cell lines.
# (§1) The following cancer and non-cancer cell lines were used in the initial cytotoxicity screening of the TPH104 compounds: triple negative breast cancer (TNBC): MDA-MB468, MDA-MB 231, and BT-20; non-TNBC: MCF-7 and ZR-75-1; ovarian: Ov2008; prostate: DU145; colon: HCT-116, S1, and LOVO; lung: H460; normal kidney: HEK-293; normal breast: HMEC; and normal colon: CRL-1459. All cells were cultured in Dulbecco's modified Eagle medium (DMEM), supplemented with 10% fetal bovine serum (FBS), and 1% penicillin/streptomycin (P/S). Cells were allowed to grow as adherent monolayers in T25 flasks in a humidified incubator with 5% CO2 at 37° C. for a period of 24 h, unless otherwise specified for certain experiments.
# (§2) The MTT assay was used to determine the cytotoxicity of all of the compounds. Briefly, in a 96-well flat-bottom cell culture plate, the cells were seeded at a density between 3-5×10^3 cells/well (180 μl in each well) and incubated for 24 h (a hemocytometer was used for cell counting). The next day, the cells were incubated with different concentrations of the nine compounds (0, 0.1, 0.3, 1, 3, 10, 30, and 100 μM) for 72 h. After 72 h, 20 μl of 5 mg/ml of 3-(4,5-dimethylthiazol-2-yl)-2,5-diphenyltetrazolium bromide (MTT) was added to the plate and incubated with the cells for 3 h at 37° C. In this experiment, the living cells will reduce the soluble MTT dye to non-soluble purple formazan crystals. Following incubation, the media containing MTT removed via suction and 100 μL of 100% dimethyl sulfoxide (DMSO) was added to dissolve the formazan crystals. Subsequently, the plate was shaken for 2 minutes and the absorbance was measured at a wavelength of 570 nm using a SpectraMax iD3 Multi-Mode Microplate Reader (Molecular Devices, Sunnyvale, CA). The IC50 values of each compound were calculated and used to determine the selectivity ratio (IC50 in normal cells/IC50 in cancer cells) of each compound as previously described. Based on the results obtained from these experiments, the compound TPH104, which had the lowest IC50 value, was selected for further experiments.
# [1] = tested on: MDA-MB231 (TNBC cell line); experiment: MTT cell viability assay, MDA-MB231; settings: Homo sapiens, MDA-MB-231, 72 h, read-out: IC50 ± SD, MDA-MB231
# Description: as §1, §2
# [2] = tested on: normal human mammary epithelial cells (HMEC); experiment: MTT cell viability assay, HMEC; settings: Homo sapiens, HMEC; MTT, 72 h; Normal; read-out: IC50 ± SD, HMEC
# Description: as §1, §2
# [3] = tested on: ZR-75-1 (non-TNBC cell line); experiment: MTT cell viability assay, ZR-75-1; settings: Homo sapiens, ZR-75-1, 72 h, read-out: IC50 ± SD, ZR-75-1
# Description: as §1, §2
# [4] = tested on: MDA-MB468 (TNBC cell line); experiment: MTT cell viability assay, MDA-MB468; settings: Homo sapiens, MDA-MB-468, 72 h, read-out: IC50 ± SD, MDA-MB468
# Description: as §1, §2
# [5] = tested on: MCF-7 (non-TNBC cell line); experiment: MTT cell viability assay, MCF-7; settings: Homo sapiens, MCF7, 72 h, read-out: IC50 ± SD, MCF-7
# Description: as §1, §2
# BT-20 cells = experiment: Acridine orange assay; settings: 20 μM, 12 h, vs vehicle
# Description: The cell-permeant, nucleic acid binding dye, acridine orange (AO) was used to assess the effect of TPH104 on the activation of lysosomes. A 10 μg/ml stock solution was prepared using PBS. The TNBC cells were seeded in a 6-well plate as described in the cell cycle assay. After overnight incubation, cells were incubated with TPH104 (1, 2, 5 μM), vehicle or 20 uM of chloroquine (CQ, […]) for 12 h. The media was removed via suction and 1 ml of AO, diluted in 1:1000 in PBS, was added to each well and the plate was incubated for an additional 30 minutes. Cells were washed three times in PBS to remove excess dye. The cells from each well were captured from randomly selected fields using a fluorescent microscope (EVOS-FLC cell imaging system, Thermofisher scientific) at 40× to determine the AO fluorescence intensity which is positively correlated to lysosomal activation.
# BT-20 or MDA-MB468 cells = experiment: Cellular reactive oxygen species (ROS) detection assay (H2DCFDA); settings: 2 μM
# Description: To assess the effect of TPH104 on the generation of ROS, a cell permeant, fluorogenic dye, 2′,7′-dichlorofluorescin diacetate, H2DCFDA, was used. A 5 mM stock solution was prepared using DMSO and PBS was used to prepare the 3 μM working solution of H2DCFDA. The TNBC cells were seeded in a 6-well plate as described in the cell cycle assay. After overnight incubation, cells were incubated with different TPH104 (1, 2, 5 μM) or vehicle for 12 h or with 2 μM of paclitaxel (positive control) for 2 h. The H2DCFDA dye (3 μM) was added to each well and the plate was incubated for an additional 30 minutes. Subsequently, cells were washed 3 times in PBS to remove excess H2DCFDA dye. Thereafter, cells from each well were captured from randomly selected fields using a fluorescent microscope (EVOS-FLC cell imaging system, Thermofisher scientific) at 40× to determine the 2′,7′-dichlorofluorescein (DCF) fluorescence intensity, which is positively correlated with the generation of ROS.
# [6] = tested on: RIP, p-RIP, MLKL, caspase 8 in MDA-MB468 cells; experiment: Western blot, necroptotic proteins, MDA-MB468; settings: 100 μM
# Description: The TNBC cells were seeded in a culture flask and incubated for 24 h. The cells were then incubated with different concentrations of the lead compounds and re-incubated for an additional 12 or 24 h. […] The bicinchoninic acid (BCA) was used to determine protein concentration in the cell extracts (G-BIOSCIENCES, St. Louis, MO, USA). […] The membrane was blocked using 5% milk in Tris-buffered Tween 20 saline for 30 minutes. The membrane was then incubated overnight with primary antibodies against Bak, Bax, Bcl-2, caspase9, caspase 3, caspase 7, PARP, cytochrome c, N-cadherin, E-cadherin, c-Myc, dishevelled segment polarity protein 3 (DVL3), dishevelled segment polarity protein 2 (DVL2), Vimentin, mitogen-activated protein kinase kinase (MAPKK also known as MEK1/2), β-catenin, low-density lipoprotein receptor-related protein 6 (LRP6), receptor-interacting protein kinase (RIP), phosphorylated RIP (p-RIP), mixed lineage kinase domain like pseudokinase(MLKL), Caspase 8, light chain 3 (LC3), lysosomal-associated membrane protein 1 (LAMP1), unc-51 like autophagy activating kinase 1 (ULK1), ras associated protein 7 (Rab7), ras associated protein 5 (Rab5), Beclin 1, mechanistic target of rapamycin (mTOR), tumor necrosis factor alpha (TNF-α), tumor necrosis factor receptor 1 (TNFR1), tumor necrosis factor receptor 2 (TNFR2), Fas-associated protein with death domain (FADD), Fas ligand (Fas), TNF-related apoptosis-inducing ligand (TRAIL), death receptor 5 (DR5), Tumor necrosis factor receptor type 1-associated DEATH domain (TRADD), receptor-interacting protein kinase 3 (RIP3), β-actin or GAPDH in 1:1000 dilution in 5% milk or 5% BSA at 4° C. Horseradish peroxidase-labeled (HRP) anti-rabbit or anti-mouse secondary antibodies (1:5,000 dilution) were added and incubated the next day for an additional 1 h. A ChemiDoc™ MP System imaging system from Bio-Rad (Hercules, CA, USA) was used for blots reading. Blots were used to obtain the protein bands, followed by quantification of the bands using image J software (NIH, Bethesda, MD, USA). All of the data were expressed as the ratio of β-actin or GAPDH.
IC50 [1] [µM],IC50 [4] [µM],IC50 [5] [µM],Compound,potency compared to TPH104 (TNBC cell lines),IC50 [2] [µM],IC50 [3] [µM],"AO fluorescence intensity, negative control (BT-20 cells)","DCF fluorescence (ROS), positive control (BT-20 or MDA-MB468 cells)","expression of RIP, p-RIP, MLKL, and caspase 8 [6]"
29.38 ± 0.08,7.87 ± 1.53,> 100,COc1ccccc1/C=N/Nc1ncnc2scc(-c3ccccc3)c12 [TPH104f],poor or no potency,> 100,> 100,,,
0.78 ± 0.28,0.56 ± 0.34,2.84 ± 0.96,Oc1ccccc1/C=N/Nc1ncnc2scc(-c3ccccc3)c12 [TPH104j],moderate potency compared to TPH104,4.52 ± 1.38,3.42 ± 1.53,,,
96.7 ± 0.14,> 100,63 ± 2.89,COc1cccc(/C=N/Nc2ncnc3scc(-c4ccccc4)c23)c1OC [TPH104h],poor or no potency,> 100,> 100,,,
18.6 ± 2.57,22.2 ± 0.78,23.5 ± 1.12,COc1cc(/C=N/Nc2ncnc3scc(-c4ccccc4)c23)ccc1O [TPH104q],poor or no potency,> 100,21.4 ± 3.11,,,
2.29 ± 0.16,2.22 ± 1.82,> 100,Cc1ccc(-c2csc3ncnc(N/N=C/c4ccccc4O)c23)cc1 [TPH104d],moderate potency compared to TPH104,33.1 ± 2.33,6.05 ± 2.02,,,
0.23 ± 0.01,0.18 ± 0.02,> 100,COc1cccc(/C=N/Nc2ncnc3scc(-c4ccccc4)c23)c1O [TPH104c],equipotent to TPH104,> 100,10.7 ± 1.1,,,
27.64 ± 0.15,27.3 ± 4.53,27.2 ± 2.92,COc1ccc(/C=N/Nc2ncnc3scc(-c4ccc(C)cc4)c23)c(OC)c1OC [TPH104g],poor or no potency,> 100,28.9 ± 2.61,,,
23.1 ± 1.88,21.7 ± 0.3,> 100,CCOc1cc(/C=N/Nc2ncnc3scc(-c4ccccc4)c23)ccc1O [TPH104n],poor or no potency,> 100,21.5 ± 3.67,,,
,,,"CCN(CC)CCCC(C)Nc1ccnc2cc(Cl)ccc12 (stereo not drawn) [chloroquine, reference compound]",,,,no significant change,,
> 100,> 100,> 100,COc1cc(OC)c(OC)cc1/C=N/Nc1ncnc2scc(-c3ccccc3)c12 [TPH104e],poor or no potency,> 100,> 100,,,
0.28 ± 0.06,0.44 ± 0.26,6.96 ± 1.15,Oc1ccccc1/C=N/Nc1ncnc2scc(-c3ccc(Cl)cc3)c12 [TPH104a],comparable potency to that of TPH104,27.9 ± 8.95,2.29 ± 0.23,,,
1.29 ± 0.52,0.91 ± 0.09,15.6 ± 6.5,Oc1cc(Br)ccc1/C=N/Nc1ncnc2scc(-c3ccccc3)c12 [TPH104k],moderate potency compared to TPH104,> 100,6.07 ± 5.18,,,
> 100,> 100,> 100,COc1ccc(/C=N/Nc2ncnc3scc(-c4ccccc4)c23)c(OC)c1 [TPH104i],poor or no potency,> 100,> 100,,,
0.43 ± 0.19,0.56 ± 0.24,1.22 ± 0.6,Cc1ccc(-c2csc3ncnc(N/N=C/c4ccc(C)cc4O)c23)cc1 [TPH104o],moderate potency compared to TPH104,> 100,1.04 ± 0.54,,,
0.25 ± 0.02,0.23 ± 0.05,1.52 ± 0.57,Oc1c(/C=N/Nc2ncnc3scc(-c4ccccc4)c23)cc2c3c1CCCN3CCC2 [TPH104b],equipotent to TPH104,> 100,1.18 ± 0.53,,,
0.78 ± 0.38,1.47 ± 0.84,6.59 ± 0.58,Oc1ccc(/C=N/Nc2ncnc3scc(-c4ccccc4)c23)c(O)c1 [TPH104l],moderate potency compared to TPH104,> 100,8.68 ± 1.04,,,
,,,"CC(=O)O[C@H]1C(=O)[C@@]2(C)[C@H]([C@H](OC(=O)c3ccccc3)[C@]3(O)C[C@H](OC(=O)[C@H](O)[C@@H](NC(=O)c4ccccc4)c4ccccc4)C(C)=C1C3(C)C)[C@]1(OC(C)=O)CO[C@@H]1C[C@@H]2O [paclitaxel, reference compound]",,,,,significantly increased,
62.2 ± 8.83,55.9 ± 0.98,> 100,COc1cc(OC)c(OC)cc1/C=N/Nc1ncnc2scc(-c3ccc(Cl)cc3)c12 [TPH104p],poor or no potency,> 100,23 ± 0.59,,,
,,,"necrostatin-1 [nec-1, reference compound]",,,,,,significantly downregulated

# From patent US12390467B2, “Necroptosis inducers or autophagy inhibitors or a combination thereof” (The University of Toledo, priority 2018, dated 2025)
